Earlier results as cited in US10052339B2, “Methods and compositions for treating symptoms of diseases related to imbalance of essential fatty acids” (BODYBIO INC, priority 2014, dated 2018).

How the values were obtained:
CB1 cannabinoid receptor = CB1 cannabinoid receptor (Homo sapiens, UniProt P21554)
CB2 receptor = CB2 receptor (Homo sapiens, UniProt P34972)
Chain of CB2 receptor (P34972 whole entry): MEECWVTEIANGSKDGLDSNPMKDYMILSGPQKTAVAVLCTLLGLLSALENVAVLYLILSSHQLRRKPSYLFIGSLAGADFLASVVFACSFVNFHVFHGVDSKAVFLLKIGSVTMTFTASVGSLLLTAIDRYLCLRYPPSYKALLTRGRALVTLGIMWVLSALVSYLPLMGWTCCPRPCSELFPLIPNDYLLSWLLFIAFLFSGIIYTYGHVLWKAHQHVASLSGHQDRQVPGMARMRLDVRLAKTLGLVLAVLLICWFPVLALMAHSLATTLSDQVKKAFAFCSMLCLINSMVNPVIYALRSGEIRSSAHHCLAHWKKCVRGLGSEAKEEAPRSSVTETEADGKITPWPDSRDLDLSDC

Chain of CB1 cannabinoid receptor (P21554 whole entry): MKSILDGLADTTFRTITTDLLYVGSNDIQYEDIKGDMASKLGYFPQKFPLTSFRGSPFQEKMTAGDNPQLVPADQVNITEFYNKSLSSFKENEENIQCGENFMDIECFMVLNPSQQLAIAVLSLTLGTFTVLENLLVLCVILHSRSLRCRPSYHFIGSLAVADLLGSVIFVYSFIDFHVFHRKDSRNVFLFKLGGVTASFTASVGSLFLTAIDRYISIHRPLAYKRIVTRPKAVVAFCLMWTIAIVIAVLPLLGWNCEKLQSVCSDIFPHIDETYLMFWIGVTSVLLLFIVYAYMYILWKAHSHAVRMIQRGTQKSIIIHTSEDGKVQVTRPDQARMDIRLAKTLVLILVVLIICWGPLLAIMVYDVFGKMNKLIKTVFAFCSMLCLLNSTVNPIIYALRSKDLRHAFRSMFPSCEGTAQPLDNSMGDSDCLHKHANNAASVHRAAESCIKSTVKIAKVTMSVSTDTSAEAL

CCCCC/C=C\C/C=C\C/C=C\C/C=C\CCCCOC(CO)CO [Noladin ether, 2-arachidonyl glyceryl ether]
Ki (CB1 cannabinoid receptor): 0.0212 µM
binding to the CB2 receptor (CB2 receptor): only weakly
effects caused in mice (mice): sedation, hypothermia, intestinal immobility, and mild antinociception
